The source of these data is EP1096932B1, “ANTIHYPERTENSIVE COMBINATION OF VALSARTAN AND CALCIUM CHANNEL BLOCKER” (Novartis Pharma AG, priority 1998, dated 2000).

The assay has as its system diabetic SHRs. The assay can be described thus: Survival of streptozotocin-diabetic SHRs under drug treatment. Type of assay: in vivo, spontaneously hypertensive rats (SHR). The conditions noted are these: twice daily gavage. The text has this: In diabetic SHRs the presence of hypertension is an important determinant of renal injury, manifesting in functional changes such as albuminuria and in ultrastructural injury. For example, diabetic SHRs show ventricular hypertrophy and develop nephropathy resulting in sudden death events. Accordingly, the use of this animal model is well-applied in the art and suitable for evaluating effects of drugs on the development of diabetic renal diseases. There is a strong need to achieve a significant increase of the survival rate by treatment of hypertension in diabetes especially in NIDDM. It is known that CCBs are not considered as first line antihypertensives e.g. in NIDDM treatment. Though some kind of reduction of blood pressure may be achieved with CCBs, they may not be indicated for the treatment of renal disorders associated with diabetes.
Diabetes is induced in SHRs aged about 6 to 8 weeks weighing about 250 to 300 g by treatment e.g. with streptozotocin. The drugs are administered by twice daily gavage. Untreated diabetic SHRs are used as control group (group 1). […] On a regular basis, besides other parameters the survival rate after 21 weeks of treatment is being monitored. In week 21 of the study, following survival rates have been determined: […]

For the compound `COc1ccc(CCN(C)CCCC(C#N)(c2ccc(OC)c(OC)c2)C(C)C)cc1OC` (centres unmarked) [verapamil], the “Survival Rate” value (20 mg/kg of verapamil, week 21 (group 3)) is recorded as 42.9%. Take `CCCCC(=O)N(Cc1ccc(-c2ccccc2-c2nnn[nH]2)cc1)[C@H](C(=O)O)C(C)C` [valsartan, (S)-N-(1-carboxy-2-methyl-prop-1-yl)-N-pentanoyl-N-[2'(1H-tetrazol-5-yl)biphenyl-4-yl-methyl]amine]: the “Survival Rate” value (30 mg/kg of valsartan, week 21 (group 2)) amounted to 45.9%.
